# Data: patent US20210047290A1, “SPIRO COMPOUND AS INDOLEAMINE-2,3-DIOXYGENASE INHIBITOR” (SHANGHAI INSTITUTE OF ORGANIC CHEMISTRY, CHINESE ACADEMY OF …, priority 2018, published 2021)
# Target: T1, IDO in Hela cells (Homo sapiens, UniProt P14902)
# T1 construct: endogenous in cells; host or cells: HeLa cells stimulated with human interferon γ
# Test: Test of cellular activity (kynurenine formation in interferon γ stimulated Hela cells)
# Assay type: cell-based
# Conditions: head prints IPS cells, method: Hela cells, 48 h incubation, read at 480 nm
# Method: (3) Test Method of Cellular Activity
# Hela cells (80 μL) was inoculated on a 96-well plate (5×10^3 for each well) to grow overnight. After the compound was diluted the next day, 1 μL of diluent and 100 μL of culture medium which contains human interferon γ (final concentration: 50 ng/m) were added into the 96-well plate to make the final volume reach […]. After incubating for 48 h, 80 μL of supernate was transferred from each well to a new […]. 10 μL 6.1N trichloroacetic acid was added into each well for mixing and incubation at 50° C. for 30 min, and […] N formyl-kynurenin into kynurenine. The reaction mixture was centrifuged at 2,500 rpm for 10 min, 70 μL of supernatant of each well was transferred to a new 96-well plate and mixed with 100 μL of 2% (w/v) dimethylaminobenzaldehyde acetic acid solution. After placing for 5-10 min, measurement was carried out at 480 nm with the SPECTRAmax i13 reader.
# T1 sequence (P14902 whole entry): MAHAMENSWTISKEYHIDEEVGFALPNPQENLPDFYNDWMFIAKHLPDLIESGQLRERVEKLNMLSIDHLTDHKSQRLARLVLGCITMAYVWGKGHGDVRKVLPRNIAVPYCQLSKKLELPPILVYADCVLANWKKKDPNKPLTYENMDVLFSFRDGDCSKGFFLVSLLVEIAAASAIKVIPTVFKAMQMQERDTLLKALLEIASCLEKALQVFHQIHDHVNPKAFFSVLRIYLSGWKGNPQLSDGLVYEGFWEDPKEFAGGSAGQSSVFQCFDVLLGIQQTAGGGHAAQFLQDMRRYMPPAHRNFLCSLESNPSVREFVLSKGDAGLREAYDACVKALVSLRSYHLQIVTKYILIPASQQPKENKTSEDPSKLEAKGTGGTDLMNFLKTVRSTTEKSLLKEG
row,SMILES,IC50
1,"O=C(Nc1ccc(F)cc1)C1CC2(CCC(c3ccnc4ccc(F)cc34)CC2)C1 (single isomer, unassigned) [Example 25, N-(4-fluorophenyl)-7-(6-fluoroquinolin-4-yl)spiro[3.5]nonane-2-carboxamide]",0.69 nM
2,"O=C(Nc1ccc(Br)cc1)C1CC2(CCC(c3ccnc4ccc(F)cc34)CC2)C1 (single isomer, unassigned) [Example 26, N-(4-bromophenyl)-7-(6-fluoroquinoline-4-yl)spiro[3.5]nonane-2-carboxamide]",0.79 nM
3,"O=C(Nc1ccccn1)C1CC2(CCC(c3ccnc4ccc(F)cc34)CC2)C1 (single isomer, unassigned) [Example 27]",> 10 nM
4,"O=C(Nc1ccc(Cl)cc1F)C1CC2(CCC(c3ccnc4ccc(F)cc34)CC2)C1 (single isomer, unassigned) [Example 30, N-(4-chloro-2-fluorophenyl)-7-(6-fluoroquinoline-4-yl)spiro[3.5]nonane-2-carboxamide]",2.53 nM
5,"O=C(Nc1cccc(F)c1)C1CC2(CCC(c3ccnc4ccc(F)cc34)CC2)C1 (single isomer, unassigned) [Example 31, N-(3-fluorophenyl)-7-(6-fluoroquinoline-4-yl)spiro[3.5]nonane-2-carboxamide]",1.97 nM
6,"O=C(Nc1ccc(Cl)c(F)c1)C1CC2(CCC(c3ccnc4ccc(F)cc34)CC2)C1 (single isomer, unassigned) [Example 34, N-(3-fluoro-4-chlorophenyl)-7-(6-fluoroquinoline-4-yl)spiro[3.5]nonane-2-carboxamide]",1.36 nM
7,"O=C(Nc1ccc(C(F)(F)F)cc1)C1CC2(CCC(c3ccnc4ccc(F)cc34)CC2)C1 (single isomer, unassigned) [Example 35, 7-(6-fluoroquinolin-4-yl)-N-(4-(trifluoromethyl)phenyl)spiro[3.5]nonane-2-carboxamide]",6.23 nM
8,"O=C(Nc1cccc(Cl)c1)C1CC2(CCC(c3ccnc4ccc(F)cc34)CC2)C1 (single isomer, unassigned) [Example 36, N-(3-chlorophenyl)-7-(6-fluoroquinoline-4-yl)spiro[3.5]nonane-2-carboxamide]",8.32 nM
9,"O=C(Nc1ccc(Cl)cn1)C1CC2(CCC(c3ccnc4ccc(F)cc34)CC2)C1 (single isomer, unassigned) [Example 42, N-(5-chloropyridine-2-yl)-7-(6-fluoroquinoline-4-yl)spiro[3.5]nonane-2-carboxamide]",9.5 nM
10,"O=C(Nc1ccc(C(F)(F)F)c(Cl)c1)C1CC2(CCC(c3ccnc4ccc(F)cc34)CC2)C1 (single isomer, unassigned) [Example 45, N-(3-chloro-4-(trifluoromethyl)phenyl)-7-(6-fluoroquinoline-4-yl)spiro[3.5]nonane-2-carboxamide]",> 10 nM
11,"O=C(Nc1ccccc1F)C1CC2(CCC(c3ccnc4ccc(F)cc34)CC2)C1 (single isomer, unassigned) [Example 46, N-(2-fluorophenyl)-7-(6-fluoroquinoline-4-yl)spiro[3.5]nonane-2-carboxamide]",2.74 nM

# More lines, now with the values ahead:
row,IC50,SMILES
1,> 3 nM,"O=C(Nc1ccc(Cl)cc1)C1CCC12CCC(c1ccnc3ccc(F)cc13)CC2 (racemic) [Example 10B, (±) N-(4-chlorophenyl)-7-(6-fluoroquinolin-4-yl)spiro[3.5]nonane-1-carboxamide]"
2,> 10 nM,"Cn1ccc(-c2ccc(NC(=O)C3CC4(CCC(c5ccnc6ccc(F)cc56)CC4)C3)cc2F)n1 (single isomer, unassigned) [Example 28, N-(3-fluoro-4-(1-methyl-1H-pyrazol-3-yl)phenyl)-7-(6-fluoroquinolin-4-yl)spiro[3.5]nonane-2-carboxamide]"
3,> 10 nM,"O=C(Nc1ccccc1Cl)C1CC2(CCC(c3ccnc4ccc(F)cc34)CC2)C1 (single isomer, unassigned) [Example 29, N-(2-chlorophenyl)-7-(6-fluoroquinolin-4-yl)spiro[3.5]nonane-2-carboxamide]"
4,> 10 nM,"O=C(Nc1cccc(Br)c1)C1CC2(CCC(c3ccnc4ccc(F)cc34)CC2)C1 (single isomer, unassigned) [Example 32, N-(3-bromophenyl)-7-(6-fluoroquinoline-4-yl)spiro[3.5]nonane-2-carboxamide]"
5,> 10 nM,"O=C(Nc1cccnc1)C1CC2(CCC(c3ccnc4ccc(F)cc34)CC2)C1 (single isomer, unassigned) [Example 33, 7-(6-fluoroquinoline-4-yl)-N-(pyridine-3-yl)spiro[3.5]nonane-2-carboxamide]"
6,> 10 nM,"O=C(Nc1ccc(Br)c(F)c1)C1CC2(CCC(c3ccnc4ccc(F)cc34)CC2)C1 (single isomer, unassigned) [Example 37, N-(3-fluoro-4-bromophenyl)-7-(6-fluoroquinoline-4-yl)spiro[3.5]nonane-2-carboxamide]"
7,> 10 nM,"O=C(Nc1ccc(F)c(Cl)c1)C1CC2(CCC(c3ccnc4ccc(F)cc34)CC2)C1 (single isomer, unassigned) [Example 38, N-(3-chloro-4-fluorophenyl)-7-(6-fluoroquinoline-4-yl)spiro[3.5]nonane-2-carboxamide]"
8,3.05 nM,"O=C(Nc1ccc(F)c(F)c1)C1CC2(CCC(c3ccnc4ccc(F)cc34)CC2)C1 (single isomer, unassigned) [Example 40, N-(3,4-difluorophenyl)-7-(6-fluoroquinoline-4-yl)spiro[3.5]nonane-2-carboxamide]"
9,> 10 nM,"O=C(Nc1ccccc1C(F)(F)F)C1CC2(CCC(c3ccnc4ccc(F)cc34)CC2)C1 (single isomer, unassigned) [Example 41, 7-(6-fluoroquinoline-4-yl)-N-(2-(trifluoromethyl)phenyl)spiro[3.5]nonane-2-carboxamide]"
10,3.07 nM,"O=C(Nc1ccc(-c2ccccc2)cc1)C1CC2(CCC(c3ccnc4ccc(F)cc34)CC2)C1 (single isomer, unassigned) [Example 43, N-([1,1′-biphenyl]-4-yl)-7-(6-fluoroquinolin-4-yl)spiro[3.5]nonane-2-carboxamide]"
11,> 10 nM,"O=C(Nc1cccc(-c2ccccc2)c1)C1CC2(CCC(c3ccnc4ccc(F)cc34)CC2)C1 (single isomer, unassigned) [Example 44, N-([1,1′-biphenyl]-3-yl)-7-(6-fluoroquinolin-4-yl)spiro[3.5]nonane-2-carboxamide]"
12,> 10 nM,"O=C(Nc1ccccc1Br)C1CC2(CCC(c3ccnc4ccc(F)cc34)CC2)C1 (single isomer, unassigned) [Example 47, N-(2-bromophenyl)-7-(6-fluoroquinoline-4-yl)spiro[3.5]nonane-2-carboxamide]"
13,> 10 nM,"O=C(Nc1ccncc1)C1CC2(CCC(c3ccnc4ccc(F)cc34)CC2)C1 (single isomer, unassigned) [Example 48]"
14,1.32 nM,"N#Cc1ccc(NC(=O)C2CC3(CCC(c4ccnc5ccc(F)cc45)CC3)C2)cc1 (single isomer, unassigned) [Example 49, N-(4-cyanophenyl)-7-(6-fluoroquinolin-4-yl)spiro[3.5]nonane-2-carboxamide]"
15,> 10 nM,"O=C(Nc1cccc(C(F)(F)F)c1)C1CC2(CCC(c3ccnc4ccc(F)cc34)CC2)C1 [Example 39, (2S,4s,7S)-7-(6-fluoroquinoline-4-yl)-N-(3-(trifluoromethyl)phenyl)spiro[3.5]nonane-2-carboxamide]"
